Key:
[1] = test system: ω-3 desaturase from Pythium irregulare; assay type: cell-based, S. cerevisiae; conditions: for desaturation by ω-3 desaturase from Pythium (in words): expression in yeast, exogenously supplied ω-6 fatty acids; for Conversion (%) / Product (%): yeast transformant pYES2-O3; for Conversion (%): conversion of ω-6 substrate into the corresponding ω-3 product; for Product (%): ω-3 product (ALA, SDA, ETA, EPA, DHA) of the fed substrate, 100 μM, 16° C., 4 days, GC
Procedure: (§1) The plasmids containing the full length O3 genes in the yeast expression vector pYES2.1/V5-His-TOPO were transformed into yeast S. cerevisiae. The positive transformants were selected for uracil auxotrophy on DOB-U agar plates. To characterize the ω-3 desaturase enzyme activity, positive clones and the control (yeast with pYES2.1 vector) were cultured overnight in DOB-U liquid medium at 28° C. and then grown in induction medium (DOB-U+Gal+Raf) containing 100 μM of various exogenously supplied fatty acid substrates at 16° C. for 4 days. The whole yeast cells expressing Pythium ω-3 genes were harvested by centrifugation and washed twice with distilled water. Then the yeast cells were directly transmethylated with methanolic HCl (3N) at 80° C. for 1 hour. The resultant methyl esters were extracted with hexane and analyzed by gas chromatography (GC). GC was carried out as described in WO 2005/083053.

[2] = test system: control yeast pYES2 (yeast with pYES2.1 vector); experiment: Production of ω-3 fatty acids from exogenous ω-6 fatty acids in the control yeast pYES2; assay type: cell-based, S. cerevisiae; conditions: ω-3 product (ALA, SDA, ETA, EPA, DHA) of the fed substrate, GC
Procedure: as §1

Structure (SMILES) | desaturation by ω-3 desaturase from Pythium (in words) [1] | Conversion (%) [1] | Product (%) [1] | Product (%) [2]
CCCCC/C=C\C/C=C\C/C=C\CCCCCCC(=O)O [DGLA, dihomo-γ-linolenic acid] | desaturates | 9.65% | 1.90% | 0%
CC/C=C\C/C=C\C/C=C\C/C=C\C/C=C\CCCCCC(=O)O [DPA, docosapentaenoic acid] |  | 2.01% | 0.20% | 0.03%
CCCCC/C=C\C/C=C\C/C=C\CCCCC(=O)O [GLA, γ-linolenic acid] | not able to desaturase | 0% | 0% | 0%
CCCCC/C=C\C/C=C\CCCCCCCC(=O)O [LA, linoleic acid] | not able to desaturase | 0% | 0% | 0%
